For data set [1], the system named is Human umbilical vein endothelial cell. Briefly: In Vitro Angiogenesis Assay (morphogenesis / tube formation on Matrigel, ECMatrix kit). The class given is cell-based. Also on record: key to Results: Individual cells, well separated (+++++); Cells begin to migrate and align themselves (++++); Cells begin to line but not sprouting (+++); Visible Sprouting (++); Closed polygons begins to form (+). As to conditions: for Results: score of the extent of cellular networks, HUVECs 10^4 cells/well, inhibitors 1mM and 10 mM, 8 hours incubation at 37 °C, higher score = greater inhibition of angiogenesis. As to the method:
Human umbilical vein endothelial cell was purchased from Cambrex Co. (East Rutherford, New Jersey) and maintained in EGM (Endothelial Growth Medium) supplemented with 2% FBS, 0.1% EGF, 0.1% Hydrocortisone, 0.1% GA-1000 and 0.4% BBE.
The morphogenesis assay on Matrigel was performed according to the manufacturer's instructions (Chemicon International). The ECMatrix™ kit consists of laminin, collagen type IV, heparan sulfate, proteoglycans, entactin and nidogen. It also contains various growth factors (TGF-β, FGF) and proteolytic enzymes (plasminogen, tPA, MMPs) that are normally produced in EHS tumors. The incubation condition was optimized for maximal tube-formation as follows: 50µl of EC Matrix™ was suitably diluted in the ratio 9:1 with 10X diluent buffer and used for coating the 96-well plate. The coated plates were incubated at 37° C for 1 hr. to allow the Matrix solution to solidify. In the meantime the HUVECs that were cultured for 24 hours in EGM with 2% FBS was trypsinised and resuspended in the growth media and the cells were counted. After 1 hr. pre-incubation of the plate with Matrix solution, the HUVECs were plated at 10^4 cells/well in the absence or in the presence of different VEGFR inhibitors (1mM and 10 mM). After 8 hours incubation at 37 °C, the cell three-dimensional organization (cellular network structures) was examined under an inverted photomicroscope. Each treatment was performed in triplicate.
Activated endothelial cells form cellular networks (mesh like structures) resembling capillary tubes sprouting into the stromal space. The formation of these cellular networks is a dynamic process, which started migration and alignment of cells followed by the development of capillary tubes like structures, sprouting of new branches and finally the formation of the cellular networks. Although this in vitro angiogenesis kit is designed only as a qualitative assay, we have made an attempt to quantitate the degree of angiogenesis using a scoring method. The scoring was based on the extent of the cellular networks that were observed as follows: • Individual cells, well separated (+++++) • Cells begin to migrate and align themselves (++++) • Cells begin to line but not sprouting (+++) • Visible Sprouting (++) • Closed polygons begins to form (+).
According to our qualitative assessment, the higher the scoring the greater the efficiency of the compound for inhibiting endothelial cell mediated angiogenesis.

Another data set relates to VEGFR. Briefly: Assay of VEGF Receptor Tyrosine Kinase Activity (VEGFR immunoprecipitated from cell lysate, non-radioactive PTK ELISA). The class given is biochemical. As to conditions: VEGFR immunoprecipitated from cell lysate with VEGFR specific antibody, read-out: IC50 for inhibiting VEGFR kinase. The text has this: Protein Tyrosine Kinases (PTKs) perform a critical role in signal transduction pathways that control cell proliferation, differentiation, metabolism, and apoptosis. Phosphorylation of proteins by PTKs is essential for the regulation of these biological mechanisms and defects in these pathways may result in a number of human diseases, including cancer. The important aspect of these enzymes in cellular regulation is accentuated by the fact that for a large number of kinases a corresponding viral oncogene product has been identified. […] CHEMICON's non-radioactive Tyrosine Kinase Activity Assay provides a simple, convenient and specific method for quantification and comparative determination of a wide range of PTKs. […]
The non-radioactive Tyrosine Kinase Activity Assay Kit consists of a synthetic Biotinylated Peptide Substrate, a Biotinylated Phosphopeptide, purified Phosphotyrosine specific monoclonal antibody conjugated to horseradish peroxidase (HRP) and other components required to perform 96 ELISA-based assays. […] The quantity of phosphate incorporated into the tyrosine kinase substrate is determined utilizing the phosphopeptide standard curve. […] The assay reaction would be terminated by the addition of 100 µl of stop solution and finally, the absorbance was measured on a standard microplate reader at 450nm. […]

The next data set concerns GI-101A. In words: Cytotoxicity towards breast carcinoma cell line GI-101A. The data set is classed as cell-based. Particulars: GI-101A breast carcinoma cell line.
Another data set concerns MCF-7. In words: Cytotoxicity towards breast carcinoma cell line MCF-7. Particulars: MCF-7 breast carcinoma cell line. The data set is classed as cell-based.

For `CCCCCCCCCCCCCCCCCCOc1ccc(C(=O)CC(=O)Nc2ccc(Sc3cccc(C(=O)O)c3)c(C(=O)O)c2)cc1` [Example 5], the Results result in data set [1] was “+++”.

Turning to `COc1ccc(NCC(O)Cn2cnc3c2c(=O)n(C)c(=O)n3C)cc1` (centres unmarked) [Example 1], the EC50 in data set [1] (Homo sapiens, Endothelial cell, estimated, read-out: EC50 value for anti-antigenic effect) is 0.25 µM. Also, in data set [1], the Results result is on record as “+++++”. In the data set on VEGFR, the IC50 was 0.4 µM. The cytotoxicity result in the data set with GI-101A and with MCF-7 was “produced cytotoxicity” in each case.

Turning to `CCC(CNCCO)Nc1nc2c(c(=O)n(C)c(=O)n2C)n1Cc1ccccc1` (centres unmarked) [Example 7], in data set [1], the Results entry is recorded as “++”.

As for `CCCCCCCCCCCCCCCCOc1ccc(C(NNS(=O)(=O)c2cccc(C(=O)O)c2)N2CCCCC2)cc1` (centres unmarked) [Example 2], the Results result in data set [1] is listed as “++++”.
